Test results published in the NIST ThermoML archive (doi:10.1016/j.jct.2011.01.008).

What was measured:
[1] = xn = mol fraction of the nth substance listed; details: 96 kPa, Liquid, Vibrating tube method, x2 = 0
[2] = refractive index (Na D-line) (dimensionless); xn = mol fraction of the nth substance listed; details: 298.15 K; 96 kPa; Liquid; Standard Abbe refractometry; x2 = 0
[3] = Liquid; for mass density: 96 kPa, Vibrating tube method; for vapor or sublimation pressure: Index of refraction calibration data

CCOS(=O)(=O)[O-].CCn1cc[n+](C)c1 [1-ethyl-3-methylimidazolium ethyl sulfate] + CCCCC=O
[1]
Details | mass density [kg/m3]
288.16 K | 1243.72
293.16 K | 1239.95
298.14 K | 1236.86
303.14 K | 1233.58
308.15 K | 1229.9
313.15 K | 1226.73
318.16 K | 1223.17
323.15 K | 1219.99

Details | refractive index
[2] | 1.4817

CCOS(=O)(=O)[O-].CCn1cc[n+](C)c1 [1-ethyl-3-methylimidazolium ethyl sulfate]
[3]
Details | mass density [kg/m3]
288.16 K | 1243.72
293.16 K | 1239.95
298.14 K | 1236.86
298.15 K | 1236.86
303.14 K | 1233.58
308.15 K | 1229.9
313.15 K | 1226.73
318.16 K | 1223.17
323.15 K | 1219.99

CCOS(=O)(=O)[O-].CCn1cc[n+](C)c1 [1-ethyl-3-methylimidazolium ethyl sulfate] + CCC=O
[1]
Details | mass density [kg/m3]
288.16 K | 1243.72
293.16 K | 1239.95
298.14 K | 1236.86
303.14 K | 1233.58
308.15 K | 1229.9
313.15 K | 1226.73

Details | refractive index
[2] | 1.4817

CCCCC=O [pentanal]
[3]
Details | mass density [kg/m3] | vapor or sublimation pressure [kPa]
288.15 K | 814.15 | –
293.14 K | 809.45 | –
298.14 K | 804.73 | –
298.15 K | 804.73 | –
303.15 K | 799.97 | –
308.15 K | 795.17 | –
313.14 K | 790.33 | –
318.14 K | 785.46 | –
323.14 K | 780.55 | –
376.2 K | – | 101.3

CCC=O [propanal]
[3]
Details | mass density [kg/m3] | vapor or sublimation pressure [kPa]
288.14 K | 807.26 | –
293.15 K | 801.06 | –
298.15 K | 794.85 | –
303.15 K | 788.72 | –
308.16 K | 782.55 | –
313.15 K | 776.53 | –
321.2 K | – | 101.3
